From US8802597B2, “Herbicidal pyrimidines” (E I du Pont de Nemours and Company, priority 2003, dated 2014)
Like-named read-outs stand apart in the source and are kept apart here.

How the values were obtained:
Assay in all cases: Test C pre/postemergence
Assay type in all cases: in vivo
[1] = system: Surinam grass (Brachiaria decumbens); conditions: Urochloa decumbens; for pest or weed control at 125 g/ha: 125 g ai/ha; for pest or weed control at 31 g/ha: 31 g ai/ha; for pest or weed control at 62 g/ha: 62 g ai/ha; for pest or weed control at 250 g/ha: 250 g ai/ha
Description: (§1) Seeds or nutlets of plant species selected from bermudagrass (Cynodon dactylon), Surinam grass (Brachiaria decumbens), cocklebur (Xanthium strumarium), corn (Zea mays), crabgrass (Digitaria sanguinalis), woolly cupgrass (Eriochloa villosa), giant foxtail (Setaria faberii), goosegrass (Eleusine indica), johnsongrass (Sorghum halepense), kochia (Kochia scoparia), lambsquarters (Chenopodium album), morningglory (Ipomoea coccinea), eastern black nightshade (Solanum ptycanthum), yellow nutsedge (Cyperus esculentus), pigweed (Amaranthus retroflexus), common ragweed (Ambrosia elatior), soybean (Glycine max), common (oilseed) sunflower (Helianthus annuus), and velvetleaf (Abutilon theophrasti) were planted and treated preemergence with test chemicals formulated in a non-phytotoxic solvent mixture which included a surfactant.
(§2) At the same time, plants selected from these crop and weed species and also winter barley (Hordeum vulgare), blackgrass (Alopecurus myosuroides), canarygrass (Phalaris minor), chickweed (Stellaria media), downy brome (Bromus tectorum), green foxtail (Setaria viridis), Italian ryegrass (Lolium multiflorum), wheat (Triticum aestivum), wild oat (Avena fatua) and windgrass (Apera spica-venti) were treated with postemergence applications of some of the test chemicals formulated in the same manner. Plants ranged in height from 2 to 18 cm (1- to 4-leaf stage) for postemergence treatments. Plant species in the flooded paddy test consisted of rice (Oryza sativa), umbrella sedge (Cyperus difformis), duck salad (Heteranthera limosa) and barnyardgrass (Echinochloa crus-galli) grown to the 2-leaf stage for testing. Treated plants and controls were maintained in a greenhouse for 12 to 14 days, after which time all species were compared to controls and visually evaluated. Plant response ratings, summarized in Table C, are based on a scale of 0 to 100 where 0 is no effect and 100 is complete control. A dash (-) response means no test result.

[2] = system: cocklebur (Xanthium strumarium); conditions: Xanthium strumarium; for pest or weed control at 31 g/ha: 31 g ai/ha; for pest or weed control at 62 g/ha: 62 g ai/ha; for pest or weed control at 125 g/ha: 125 g ai/ha; for pest or weed control at 250 g/ha: 250 g ai/ha
Description: as §1, §2

[3] = system: common (oilseed) sunflower (Helianthus annuus); conditions: Helianthus annuus, pre-emergence, Preemergence, read-out: Plant response rating, Sunflower
Description: as §1, §2

[4] = system: corn (Zea mays); conditions: Zea mays; for Corn plant response rating (crop injury, 0 = no effect, 100 = complete kill) at 31 g/ha: 31 g ai/ha; for Corn plant response rating (crop injury, 0 = no effect, 100 = complete kill) at 62 g/ha: 62 g ai/ha; for Corn plant response rating (crop injury, 0 = no effect, 100 = complete kill) at 125 g/ha: 125 g ai/ha; for Corn plant response rating (crop injury, 0 = no effect, 100 = complete kill) at 250 g/ha: 250 g ai/ha
Description: as §1, §2

[5] = system: crabgrass (Digitaria sanguinalis); conditions: Digitaria sanguinalis; for pest or weed control at 31 g/ha: 31 g ai/ha; for pest or weed control at 62 g/ha: 62 g ai/ha; for pest or weed control at 125 g/ha: 125 g ai/ha; for pest or weed control at 250 g/ha: 250 g ai/ha
Description: as §1, §2

[6] = system: giant foxtail (Setaria faberii); conditions: Setaria faberi; for pest or weed control at 31 g/ha: 31 g ai/ha; for pest or weed control at 62 g/ha: 62 g ai/ha
Description: as §1, §2

[7] = post-emergence, Postemergence, scale 0 to 100 (0 no effect, 100 complete control), read-out: Surinam Grass plant response rating
[8] = pre-emergence, Preemergence, scale 0 to 100, 0 no effect, 100 complete control, read-out: Plant response rating, Surinam Grass
[9] = pre-emergence, Preemergence, scale 0 to 100, read-out: Plant response rating, Surinam Grass
[10] = post-emergence, Postemergence, scale 0 to 100 (0 no effect, 100 complete control), read-out: Cocklebur plant response rating
[11] = pre-emergence, Preemergence, scale 0 to 100, 0 no effect, 100 complete control, read-out: Plant response rating, Cocklebur
[12] = pre-emergence, Preemergence, scale 0 to 100, read-out: Plant response rating, Cocklebur
[13] = post-emergence, Postemergence, scale 0 to 100 (0 no effect, 100 complete control), read-out: Corn plant response rating
[14] = pre-emergence, Preemergence, scale 0 to 100, 0 no effect, 100 complete control, read-out: Plant response rating, Corn
[15] = post-emergence, Postemergence, scale 0 to 100 (0 no effect, 100 complete control), read-out: Crabgrass plant response rating
[16] = pre-emergence, Preemergence, scale 0 to 100, 0 no effect, 100 complete control, read-out: Plant response rating, Crabgrass
[17] = pre-emergence, Preemergence, scale 0 to 100, read-out: Plant response rating, Crabgrass
[18] = pre-emergence, Preemergence, scale 0 to 100, 0 no effect, 100 complete control, read-out: Plant response rating, Foxtail, Giant

COC(=O)c1nc(C2CC2)nc(N)c1Cl [Compound 9, methyl 6-amino-5-chloro-2-cyclopropyl-4-pyrimidinecarboxylate]
pest or weed control at 125 g/ha [1, 7]: 75%
pest or weed control at 31 g/ha ([1]; post-emergence, Postemergence, read-out: Plant response rating (scale of 0 to 100), Surinam Grass): 45%
pest or weed control at 62 g/ha [1, 7]: 65%
pest or weed control at 250 g/ha ([1]; post-emergence, Postemergence, scale 0 to 100, read-out: Plant response rating, Surinam Grass): 80%
pest or weed control at 31 g/ha [1, 8]: 95%
pest or weed control at 62 g/ha [1, 8]: 100%
pest or weed control at 125 g/ha [1, 9]: 100%
pest or weed control at 250 g/ha [1, 9]: 100%
pest or weed control at 31 g/ha ([2]; post-emergence, Postemergence, read-out: Plant response rating (scale of 0 to 100), Cocklebur): 40%
pest or weed control at 62 g/ha [2, 10]: 85%
pest or weed control at 125 g/ha [2, 10]: 100%
pest or weed control at 250 g/ha ([2]; post-emergence, Postemergence, scale 0 to 100, read-out: Plant response rating, Cocklebur): 100%
pest or weed control at 31 g/ha [2, 11]: 75%
pest or weed control at 62 g/ha [2, 11]: 80%
pest or weed control at 125 g/ha [2, 12]: 100%
pest or weed control at 250 g/ha [2, 12]: 100%
pest or weed control at 31 g/ha ([3]; 31 g ai/ha, scale 0 to 100, 0 no effect, 100 complete control): 100%
pest or weed control at 62 g/ha ([3]; 62 g ai/ha, scale 0 to 100, 0 no effect, 100 complete control): 100%
pest or weed control at 125 g/ha ([3]; 125 g ai/ha, scale 0 to 100): 100%
pest or weed control at 250 g/ha ([3]; 250 g ai/ha, scale 0 to 100): 100%
Corn plant response rating (crop injury, 0 = no effect, 100 = complete kill) at 31 g/ha ([4]; post-emergence, Postemergence, read-out: Plant response rating (scale of 0 to 100), Corn): 45%
Corn plant response rating (crop injury, 0 = no effect, 100 = complete kill) at 62 g/ha [4, 13]: 55%
Corn plant response rating (crop injury, 0 = no effect, 100 = complete kill) at 125 g/ha [4, 13]: 65%
Corn plant response rating (crop injury, 0 = no effect, 100 = complete kill) at 250 g/ha ([4]; post-emergence, Postemergence, scale 0 to 100): 95%
Corn plant response rating (crop injury, 0 = no effect, 100 = complete kill) at 31 g/ha [4, 14]: 0%
Corn plant response rating (crop injury, 0 = no effect, 100 = complete kill) at 62 g/ha [4, 14]: 5%
Corn plant response rating (crop injury, 0 = no effect, 100 = complete kill) at 125 g/ha ([4]; pre-emergence, Preemergence, scale 0 to 100, read-out: Plant response rating, Corn): 60%
Corn plant response rating (crop injury, 0 = no effect, 100 = complete kill) at 250 g/ha ([4]; pre-emergence, Preemergence, scale 0 to 100): 75%
pest or weed control at 31 g/ha ([5]; post-emergence, Postemergence, read-out: Plant response rating (scale of 0 to 100), Crabgrass): 60%
pest or weed control at 62 g/ha [5, 15]: 70%
pest or weed control at 125 g/ha [5, 15]: 75%
pest or weed control at 250 g/ha ([5]; post-emergence, Postemergence, scale 0 to 100, read-out: Plant response rating, Crabgrass): 80%
pest or weed control at 31 g/ha [5, 16]: 20%
pest or weed control at 62 g/ha [5, 16]: 95%
pest or weed control at 125 g/ha [5, 17]: 95%
pest or weed control at 250 g/ha [5, 17]: 100%
pest or weed control at 125 g/ha ([6]; post-emergence, Postemergence, 125 g ai/ha, scale 0 to 100 (0 no effect, 100 complete control), read-out: Foxtail, Giant plant response rating): 75%
pest or weed control at 31 g/ha ([6]; post-emergence, Postemergence, read-out: Plant response rating (scale of 0 to 100), Foxtail, Giant): 60%
pest or weed control at 62 g/ha ([6]; post-emergence, Postemergence, scale 0 to 100 (0 no effect, 100 complete control), read-out: Foxtail, Giant plant response rating): 65%
pest or weed control at 250 g/ha ([6]; post-emergence, Postemergence, 250 g ai/ha, scale 0 to 100, read-out: Plant response rating, Foxtail, Giant): 80%
pest or weed control at 31 g/ha [6, 18]: 0%
pest or weed control at 62 g/ha [6, 18]: 0%
